“Also recorded” adds a separate entry of the source. Like-named read-outs stand apart in the source and are kept apart here. Where a SMILES comes first, the peptide text is derived from it. The star is where a group is joined. Orn(α-tetramethylguanidino) = CN(C)C(=N[C@@H](CCCN)C(=O)*)N(C)C
Columns and labels:
E. coli ATCC 25922 [1] = conditions: ref Czihal et al., 2012, cited from earlier work
From the text: Antimicrobial peptides (AMPs) are considered as promising alternatives to common antibiotics that threateningly lose their therapeutic potentials against multidrug-resistant pathogens (Fox, [2013]; Wang et al., [2015]). In contrast to approved therapeutic peptide hormones, antimicrobial peptides have to be administered at much higher doses, which may amplify general drawbacks of peptide therapeutics. […] Api137 appeared more efficient in this septicemia model due to the better scores obtained at ... || Apidaecin analogs Api88 and Api137 are similarly active against Gram-negative bacteria with a tendency of higher activity of Api88 against K. pneumoniae (Czihal et al., [2012]; Berthold et al., [2013]). However, Api88 carries a C-terminal amide that is responsible for its very fast proteolytic cleavage in serum, the supernatant obtained after complete coagulation and centrifugation of blood. The in vitro serum stability assay, which is an important in vitro criterion to select therapeutic peptides for systemic applications, yielded very short half-life times of 5 min for Api88, which indicate ...

E. coli ATCC 25922 [2] = assay: Systemic septicemia infection mouse model (lethal intraperitoneal E. coli infection); format: in vivo, NMRI mice
Experimental: (§1) The acute toxicity of Api137 was studied by administering doses of 20, 40, 80, and 120 mg/kg intraperitoneally (i.p.) four times daily (0, 3, 7, and 24 h) into female NMRI mice (24–32 g, ~7 weeks old). For in vivo efficacy, female NMRI mice (high dose experiment: 24–27.1 g, 6 weeks; low dose experiment: 26.8–30.3 g, 7 weeks) were infected intraperitoneal with E. coli ATCC 25922, as described before (Czihal et al., [2012]; Knappe et al., [2012]). Briefly, each mouse was infected with 9 × 10^5 bacteria in the presence of 2.5% (w/v) mucin (0.3 mL in total). Mucin restricts acute macrophage activation in the intraperitoneal space and promotes establishment of a reproducible infection (Frimodt-Møller et al., [1999]). Mice were observed three times daily for their health status for a total of 5 days post-infection and weighed 1 day before and 1 and 5 days after infection. In accordance with the guidelines of the Animal Care and Usage Committee of the Landesdirektion Leipzig, moribund mice were euthanized.
Apidaecin Api137 (high dose experiment: 2.5 and 1.25 mg/kg body weight; low dose experiment: 0.6 and 0.3 mg/kg body weight) was administered intraperitoneal (0.3 mL) in seven mice per group three times post-infection (1, 4, and 8 h) as antibacterial therapy. Each experiment included seven mice receiving ciprofloxacin (40 mg/kg body weight) and four mice receiving only the vehicle (5% glucose in water, w/v) as positive and negative controls, respectively.

[3] = Acute toxicity, intraperitoneal administration; format: in vivo, NMRI mice
Experimental: as §1

[4] = Peptide recovery in spiked blood and organ homogenates; format: in vitro ADME, NMRI mice; conditions: LC-MS MRM, mean n = 3
Experimental: plasma samples and organ homogenates relative to equally concentrated peptide solutions in pure w ater. Concentrations of samples below the LOQ but still detectable were set to the value of the LOD, whereas signals with peak hei ghts below the LOD were set to 0 µg/m L.
Method M3: Recovery rates in plasma and organ homogenates
Li -heparin blood samples obtained from untreated NMRI mice were spiked with Api88 or Api137 (final concentrations: 2.5 or 10 µ g/ m L), incubated (10 min, RT), and centrifuged (2,000x g, 3 min, RT) to obtain plasma. […]
500 µ L, 0.2 or 2 µg/m L, l iver: 500 µ L, 1 or 2.5 µ g/m L, kidne ys: 500 µ L, 20 or 60 µg/m L). […] Recoveries were calculated b y assumin g a total blood (plasma) volume of 75 (25) m L per k g mouse weight 3 and that the measured organ weight (in g) corresponds to the organ volume (in m L). […]
Apidaecin peptides were selectively and sensitively quantified based on the methods established for oncocins Onc72 and Onc112 (Sch midt R. et al J AC 2016). […]
Table S12. Recover y rates of Api88 and Api137 determined in plasma and organ homogenates (n = 3) collected from untreated NMRI mice. […]
500 µ L, 1 or 2.5 µg/m L, kidneys: 500 µ L, 20 o r 60 µg/m L) were added p rior to homogenization and centrifugation. […] The total peptide amount in mice was calculated from the recover y rates shown […]

SMILES	Survival (E. coli ATCC 25922 [1]; 2.5 and 1.25 mg/kg i.p.)	Dose rescuing all mice (E. coli ATCC 25922 [1]; same infection model) [mg/kg]	Survival (E. coli ATCC 25922 [2]; 0.3 mg/kg i.p. three times post-infection (1, 4, 8 h), n = 7)	Survival (E. coli ATCC 25922 [2]; 0.6 mg/kg (and higher) i.p. three times post-infection (1, 4, 8 h), n = 7, 5 days observation)	Dose rescuing all mice (E. coli ATCC 25922 [2]; i.p. three times post-infection) [mg/kg]	ED50 (E. coli ATCC 25922 [2]; i.p. three times post-infection (1, 4, 8 h), approximate) [mg/kg]	Adverse side effects ([3]; 120 mg/kg per injection i.p. four times (0, 3, 7, 24 h))	Survival ([3]; 120 mg/kg per injection i.p. four times, observation period 5 days)	Adverse side effects ([3]; 20, 40 and 80 mg/kg per injection i.p. four times (0, 3, 7, 24 h), seven animals per dose group)	Recovery rate, Kidney, low concentration ([4]; peptide 20 µg/mL in 500 µL PBS with protease inhibitor added prior to homogenization) [%]	Recovery rate, Kidney, high concentration ([4]; peptide 60 µg/mL in 500 µL PBS with protease inhibitor added prior to homogenization) [%]
CC[C@H](C)[C@H](NC(=O)[C@H](Cc1ccc(O)cc1)NC(=O)[C@@H](NC(=O)[C@@H]1CCCN1C(=O)[C@H](CCCNC(=N)N)NC(=O)[C@H](CC(N)=O)NC(=O)[C@H](CC(N)=O)NC(=O)[C@H](CCCN)N=C(N(C)C)N(C)C)C(C)C)C(=O)N1CCC[C@H]1C(=O)N[C@@H](CCCNC(=N)N)C(=O)N1CCC[C@H]1C(=O)N[C@@H](CCCNC(=N)N)C(=O)N1CCC[C@H]1C(=O)N1CCC[C@H]1C(=O)N[C@@H](Cc1c[nH]cn1)C(=O)N1CCC[C@H]1C(=O)N[C@@H](CCCNC(=N)N)C(=O)N[C@@H](CC(C)C)C(N)=O [Api88] ({Orn(α-tetramethylguanidino)}-NNRPVYIPRPRPPHPRL-NH2)	rescued all NMRI mice	1.25	–	–	–	–	–	–	–	–	–
CC[C@H](C)[C@H](NC(=O)[C@H](Cc1ccc(O)cc1)NC(=O)[C@@H](NC(=O)[C@@H]1CCCN1C(=O)[C@H](CCCNC(=N)N)NC(=O)[C@H](CC(N)=O)NC(=O)[C@H](CC(N)=O)NC(=O)[C@H](CCCN)N=C(N(C)C)N(C)C)C(C)C)C(=O)N1CCC[C@H]1C(=O)N[C@@H](CCCNC(=N)N)C(=O)N1CCC[C@H]1C(=O)N[C@@H](CCCNC(=N)N)C(=O)N1CCC[C@H]1C(=O)N1CCC[C@H]1C(=O)N[C@@H](Cc1c[nH]cn1)C(=O)N1CCC[C@H]1C(=O)N[C@@H](CCCNC(=N)N)C(=O)N[C@@H](CC(C)C)C(=O)O [Api137] ({Orn(α-tetramethylguanidino)}-NNRPVYIPRPRPPHPRL-OH)	–	–	four out of seven mice	rescued all NMRI mice; also recorded: rescuing all animals	0.6	~0.3	signs of discomfort in some animals and decreased mobility for up to 20 min after administration	all mice survived	none of the seven animals per dose group showed any signs of adverse side effects	3.5 ± 0.4	2.7 ± 0.7

Reference: paper PMC5357639 (Frontiers in Chemistry, 2017)
